From PubChem BioAssay AID2060360 (Molecular Pharmacology Branch, DTP, NCI, 2025)

System: 282377-053-R-J1-PDC tumor spheroids, viability
Assay: Anticancer human tumor 282377-053-R-J1-PDC patient-derived colon adenocarcinoma cell line growth inhibition [TAK]
Settings: spheroids with HUVEC and MSC; for IC50: curve of first compound; for viability, T/C: stronger effect = lower value
Text: Combinatorial screen of targeted agents with TAK-243 and ipatasertib in multi-cell type tumor spheroids
A high-throughput screen of multi-cell type tumor spheroids was designed to identify active combinations of targeted small molecules and TAK-243 or ipatasertib. Complex spheroids include a stromal component modeled by human endothelial cells (HUVEC) and fibroblasts modeled by human mesenchymal stem cells (MSCs). The concentration ranges selected for each drug and investigational agent were based upon clinically achievable concentrations if the clinical Cmax of the agent was known.
Compounds. The drugs and investigational agents: TAK-243 (785004), ipatasertib (767898), everolimus (733504), selumetinib (741078), bortezomib (756655), trametinib (758246), ixazomib (758254), vemurafenib (761431), dabrafenib (764134), sapanisertib (764658), alpelisib (765974), and copanlisib (816437), were obtained from the National Cancer Institute (NCI) Developmental Therapeutics Program Chemical Repository. The FDA-approved anticancer drug set is available from the NCI Developmental Therapeutics Program. […] The stock solutions were prepared in dimethyl sulfoxide (DMSO, Sigma-Aldrich, St. Louis, MO, cat. D2650) at 800-fold the tested concentration and stored at -70 degrees C prior to their use. All drugs and investigational agents were tested over a range starting from a high concentration at or near the clinical Cmax and decreasing in half-log increments. If the clinical Cmax for an agent had not been determined, the highest concentration tested was 10 microM.
NCI60 Cell Culture. NCI60 cell lines were obtained from the NCI Developmental Therapeutics Program Tumor Repository. For each lot of cells, the Repository performed Applied Biosystems AmpFLSTR Identifiler testing with PCR amplification to confirm consistency with the published Identifier STR profile for each cell line. Cells were kept in continuous culture for no more than 20 passages. The optimal seeding densities for each of the cell lines at each time point assessed were determined prior to performing the concentration response studies. Briefly, the NCI60 human tumor lines were grown as monolayers in RPMI 1640 medium supplemented with 10% FBS and 2 mmol/L L-glutamine.
An additional 2 lines were from the NCI60 cell line panel including melanomas, MALME-3M and SK-MEL-2. Pooled donor human umbilical vein endothelial cells (HUVEC, Lonza, cat. CC-2519) and human mesenchymal stem cells (hMSC, Lonza, cat. PT-2501) were purchased from Lonza (Walkersville, MD).
PDMR cell lines were grown in complete medium (DC medium): Dulbecco's modified Eagle's medium (DMEM)/F12 supplemented with 5% fetal bovine serum (FBS), 2 mM L-glutamine, 100 U/mL penicillin and 100 µg/ml streptomycin, 0.4 µg/ml hydrocortisone, 10 ng/ml epidermal growth factor (EGF) recombinant human protein, 24 µg/mL adenine, and 0.1 mg/mL primocin. During culture from frozen stock vials, PDMR cells were cultured in the same medium containing 10 µM Y-27632 (see Table 3). The PDCs were cultured in complete DMEM/F12 media without 10 microM Y-27632 dihydrochloride for at least two passages prior to the screen. The pooled donor HUVEC and hMSC were cultured in endothelial cell growth medium 2 (PromoCell, Heidelberg, Germany, cat. C-22011) and mesenchymal stem cell growth medium 2 (PromoCell, cat. C-28009), respectively. For all experiments, HUVEC and hMSC were used at passages </=5.
For the pre-screen, cell seeding densities were determined from a titration spanning the range from 5,000 to 313 cells per well. The mct-spheroids including 60% malignant cells, 25% HUVEC and 15% MSC dispensed as a mixture into U-bottom Ultra-Low Attachment 384-well plates (Corning, NY)
High-throughput Drug Combination Screening.
Prior to their inoculation into 384-well plates, malignant cells, HUVEC, and hMSC were removed from T flasks using TrypLE express (Thermo Fisher Scientific, cat. 12605036) and harvested by centrifugation for 5 min at 233 x g. […]
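Note: spheroids exposed to drugs for seven days before readout.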

CC(C)CC(NC(=O)C(Cc1ccccc1)NC(=O)c1cnccn1)B(O)O (stereo not given) + CC(C)NCC(C(=O)N1CCN(c2ncnc3c2C(C)CC3O)CC1)c1ccc(Cl)cc1
IC50 (second compound 0.3 µM): > 10 nM | IC50 (second compound 0.949 µM): > 10 nM | IC50 (second compound 3 µM): > 10 nM | IC50 (second compound 9.49 µM): 7.5 nM | IC50 (second compound 30 µM): 7.96 nM | viability, T/C (second compound 0.3 µM, first compound 31.6 pM): 105% | viability, T/C (second compound 0.3 µM, first compound 0.0001 µM): 96% | viability, T/C (second compound 0.3 µM, first compound 0.000316 µM): 97.5% | viability, T/C (second compound 0.3 µM, first compound 0.001 µM): 98.3% | viability, T/C (second compound 0.3 µM, first compound 0.00316 µM): 98.5% | viability, T/C (second compound 0.3 µM, first compound 0.01 µM): 80.8% | viability, T/C (second compound 0.949 µM, first compound 31.6 pM): 93% | viability, T/C (second compound 0.949 µM, first compound 0.0001 µM): 90.7% | viability, T/C (second compound 0.949 µM, first compound 0.000316 µM): 92.5% | viability, T/C (second compound 0.949 µM, first compound 0.001 µM): 101% | viability, T/C (second compound 0.949 µM, first compound 0.00316 µM): 93.1% | viability, T/C (second compound 0.949 µM, first compound 0.01 µM): 56.5% | viability, T/C (second compound 3 µM, first compound 31.6 pM): 90.2% | viability, T/C (second compound 3 µM, first compound 0.0001 µM): 84.2% | viability, T/C (second compound 3 µM, first compound 0.000316 µM): 87.7% | viability, T/C (second compound 3 µM, first compound 0.001 µM): 86.6% | viability, T/C (second compound 3 µM, first compound 0.00316 µM): 78.8% | viability, T/C (second compound 3 µM, first compound 0.01 µM): 51.1% | viability, T/C (second compound 9.49 µM, first compound 31.6 pM): 83.2% | viability, T/C (second compound 9.49 µM, first compound 0.0001 µM): 83.7% | viability, T/C (second compound 9.49 µM, first compound 0.000316 µM): 83.8% | viability, T/C (second compound 9.49 µM, first compound 0.001 µM): 79.9% | viability, T/C (second compound 9.49 µM, first compound 0.00316 µM): 78.6% | viability, T/C (second compound 9.49 µM, first compound 0.01 µM): 40.6% | viability, T/C (second compound 30 µM, first compound 31.6 pM): 69.2% | viability, T/C (second compound 30 µM, first compound 0.0001 µM): 71.3% | viability, T/C (second compound 30 µM, first compound 0.000316 µM): 72.7% | viability, T/C (second compound 30 µM, first compound 0.001 µM): 68.5% | viability, T/C (second compound 30 µM, first compound 0.00316 µM): 65.3% | viability, T/C (second compound 30 µM, first compound 0.01 µM): 46.2%

Cn1cnc2c(F)c(Nc3ccc(Br)cc3Cl)c(C(=O)NOCCO)cc21 + CC(C)NCC(C(=O)N1CCN(c2ncnc3c2C(C)CC3O)CC1)c1ccc(Cl)cc1
IC50 (second compound 0.3 µM): 396 nM | IC50 (second compound 0.949 µM): 190 nM | IC50 (second compound 3 µM): 161 nM | IC50 (second compound 9.49 µM): 191 nM | IC50 (second compound 30 µM): 66 nM | viability, T/C (second compound 0.3 µM, first compound 0.00949 µM): 81.5% | viability, T/C (second compound 0.3 µM, first compound 0.03 µM): 74.4% | viability, T/C (second compound 0.3 µM, first compound 0.0949 µM): 63.6% | viability, T/C (second compound 0.3 µM, first compound 0.3 µM): 55.6% | viability, T/C (second compound 0.3 µM, first compound 0.949 µM): 38.4% | viability, T/C (second compound 0.3 µM, first compound 3 µM): 17.4% | viability, T/C (second compound 0.949 µM, first compound 0.00949 µM): 82% | viability, T/C (second compound 0.949 µM, first compound 0.03 µM): 70.9% | viability, T/C (second compound 0.949 µM, first compound 0.0949 µM): 56.9% | viability, T/C (second compound 0.949 µM, first compound 0.3 µM): 45.6% | viability, T/C (second compound 0.949 µM, first compound 0.949 µM): 31.8% | viability, T/C (second compound 0.949 µM, first compound 3 µM): 18.9% | viability, T/C (second compound 3 µM, first compound 0.00949 µM): 77.1% | viability, T/C (second compound 3 µM, first compound 0.03 µM): 70.5% | viability, T/C (second compound 3 µM, first compound 0.0949 µM): 54.8% | viability, T/C (second compound 3 µM, first compound 0.3 µM): 42.1% | viability, T/C (second compound 3 µM, first compound 0.949 µM): 31% | viability, T/C (second compound 3 µM, first compound 3 µM): 18.4% | viability, T/C (second compound 9.49 µM, first compound 0.00949 µM): 73.4% | viability, T/C (second compound 9.49 µM, first compound 0.03 µM): 72.2% | viability, T/C (second compound 9.49 µM, first compound 0.0949 µM): 57% | viability, T/C (second compound 9.49 µM, first compound 0.3 µM): 44.3% | viability, T/C (second compound 9.49 µM, first compound 0.949 µM): 30.1% | viability, T/C (second compound 9.49 µM, first compound 3 µM): 18.8% | viability, T/C (second compound 30 µM, first compound 0.00949 µM): 61.5% | viability, T/C (second compound 30 µM, first compound 0.03 µM): 59.8% | viability, T/C (second compound 30 µM, first compound 0.0949 µM): 45.2% | viability, T/C (second compound 30 µM, first compound 0.3 µM): 34.2% | viability, T/C (second compound 30 µM, first compound 0.949 µM): 26.4% | viability, T/C (second compound 30 µM, first compound 3 µM): 13.2%
